This experiment concerns the target b-Raf (Homo sapiens, UniProt P15056). As to the kind of experiment: b-Raf inhibition assay (IκBα substrate, 384-well plate). It is filed as biochemical. The method, then:
Compounds of the invention are tested for their ability to inhibit the activity of b-Raf. The assay is carried out in 384-well MaxiSorp plates (NUNC) with black walls and clear bottom. The substrate, IκBα is diluted in DPBS (1:750) and 15 μl is added to each well. The plates are incubated at 4° C. overnight and washed 3 times with TBST (25 mM Tris, pH 8.0, 150 mM NaCl and 0.05% Tween-20) using the EMBLA plate washer. Plates are blocked by Superblock (15 μl/well) for 3 hours at room temperature, washed 3 times with TBST and pat-dried. Assay buffer containing 20 μM ATP (10 μl) is added to each well followed by 100 nl or 500 nl of compound. B-Raf is diluted in the assay buffer (1 μl into 25 μl) and 10 μl of diluted b-Raf is added to each well ([…]). The plates are incubated at room temperature for 2.5 hours. The kinase reaction is stopped by washing the plates 6 times with TBST. Phosph-IκBα (Ser32/36) antibody is diluted in Superblock (1:10,000) and 15 μl is added to each well. The plates are incubated at 4° C. overnight and washed 6 times with TBST. AP-conjugated goat-anti-mouse IgG is diluted in Superblock (1:1,500) and 15 μl is added to each well. Plates are incubated at room temperature for 1 hour and washed 6 times with TBST. […] Plates are read on Acquest or Analyst GT using a Fluorescence Intensity Nanxin BBT anion (505 dichroic mirror).

A word on the IC50: it is the point on the concentration scale where inhibition reaches its midpoint. A higher IC50 goes with weaker potency in that assay.

Chain of b-Raf (P15056 whole entry): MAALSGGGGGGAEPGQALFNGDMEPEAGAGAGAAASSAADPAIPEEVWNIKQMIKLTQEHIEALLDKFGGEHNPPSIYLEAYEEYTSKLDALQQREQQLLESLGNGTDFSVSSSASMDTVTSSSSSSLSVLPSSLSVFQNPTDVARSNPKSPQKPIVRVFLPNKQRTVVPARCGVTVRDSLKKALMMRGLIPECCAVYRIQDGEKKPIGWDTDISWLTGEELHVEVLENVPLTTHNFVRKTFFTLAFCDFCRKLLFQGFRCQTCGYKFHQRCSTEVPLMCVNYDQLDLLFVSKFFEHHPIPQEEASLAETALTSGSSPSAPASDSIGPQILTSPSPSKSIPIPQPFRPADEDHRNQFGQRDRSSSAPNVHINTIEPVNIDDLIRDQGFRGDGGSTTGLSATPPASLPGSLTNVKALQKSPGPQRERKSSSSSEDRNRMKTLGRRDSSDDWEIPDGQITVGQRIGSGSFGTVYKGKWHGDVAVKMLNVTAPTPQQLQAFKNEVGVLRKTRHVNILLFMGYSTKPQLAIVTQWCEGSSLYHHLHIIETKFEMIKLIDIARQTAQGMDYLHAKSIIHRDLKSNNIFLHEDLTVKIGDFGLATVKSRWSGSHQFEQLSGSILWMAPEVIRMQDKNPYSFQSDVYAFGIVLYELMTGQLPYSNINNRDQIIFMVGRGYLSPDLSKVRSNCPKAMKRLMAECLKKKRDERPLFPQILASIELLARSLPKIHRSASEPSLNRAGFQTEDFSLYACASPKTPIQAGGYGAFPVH

In turn, `CN1CCN(Cc2ccc(C(=O)Nc3cccc(Nc4ccccc4-c4cc(Nc5cccc(N(C)C)c5)ncn4)c3)cc2)CC1` [Example 1, N-(3-{2-[6-(3-Dimethylamino-phenylamino)-pyrimidin-4-yl]-phenylamino}-phenyl)-4-(4-methyl-piperazin-1-ylmethyl)-benzamide] yielded an IC50 of 0.667 µM.

The record behind these values is patent US7189729B2, “Methods and compositions as protein kinase inhibitors” (IRM LLC, priority 2003, dated 2007).
